From US20020137929A1, “1 - (3-heterocyclylphenyl) isothiourea, -isourea, -guanidine and -amidine herbicidal agents” (Intellectual Property Department, BASF Aktiengesellschaft, priority 1998, published 2002)

What was measured:
[1] = tested on: AMBEL (Ragweed, Common); assay: Postemergence herbicidal evaluation; format: in vivo, Ambrosia artemisifolia
How it was run: (§1)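 Two-week seedlings sprayed postemergence at 40 psi; formulation: 1:1 acetone/water, 0.5% TWEEN 20; application ≈0.0156–0.500 kg/ha. Greenhouse grow-out, then 0–9 visual scoring at 4–5 weeks.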

[2] = tested on: CASOB (Sicklepod); assay: Postemergence herbicidal evaluation; format: in vivo, Cassia obtusifolia
How it was run: as §1

[3] = tested on: GALAP (Galium); assay: Postemergence herbicidal evaluation; format: in vivo, Galium aparine
How it was run: as §1

[4] = tested on: GLXMAW (Soybean, Williams); assay: Postemergence herbicidal evaluation; format: in vivo, Glycine max, (L.) Merr. cv Williams
How it was run: as §1

[5] = tested on: TRZAWR (Wheat, Winter, cv Riband); assay: Postemergence herbicidal evaluation; format: in vivo, Triticum aestivum
How it was run: as §1

[6] = tested on: GALAP (Galium); assay: Preemergence herbicidal evaluation; format: in vivo, Galium aparine; details: rated 4-5 weeks after treatment
How it was run: (§2)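 Test compound, dissolved in aqueous acetone, was sprayed over planted soil cups at an equivalent of about 0.0156 to 0.500 kg/ha; seeds had been mixed with potting soil. Greenhouse growth followed, with visual 0-9 scoring of injury at four to five weeks.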

[7] = tested on: SETVI (Foxtail, Green); assay: Preemergence herbicidal evaluation; format: in vivo, Setaria viridis; details: rated 4-5 weeks after treatment
How it was run: as §2

[8] = tested on: ORYSAT (Rice, Tebonnet); assay: Preemergence herbicidal evaluation; format: in vivo, Oryza sativa, (L.) Tebonnet; details: rated 4-5 weeks after treatment
How it was run: as §2

[9] = tested on: ECHORC (Watergrass (Calif.)); assay: Preemergence weed control under flooded paddy conditions; format: in vivo, Echinochloa oryzoides; details: rated 3-4 weeks after treatment
How it was run: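 Visual injury scored 0-9 against control three to four weeks post-treatment, greenhouse-grown. Application: acetone/water (50/50) solutions dosed directly into flood water (1.5-3 cm over silt loam, planted top 0.5 cm), roughly 0.0313 to 0.500 kg/ha active ingredient.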

[10] = tested on: CYPSE (Flatsedge); assay: as above; format: in vivo, Cyperus serotinus; details: rated 3-4 weeks after treatment
How it was run: (§3)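 Silt loam, seeds in top 0.5 cm; flood held 1.5-3 cm; test cpd as acetone/water 50/50 into flood water, ~0.0313-0.500 kg/ha a.i.; greenhouse 3-4 wk; visual 0-9 score vs control.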

[11] = tested on: MOOVA (Monochoria); assay: as above; format: in vivo, Monochoria vaginalis; details: rated 3-4 weeks after treatment
How it was run: as §3

[12] = tested on: SAGPY (Arrowhead (Pygmaea)); assay: as above; format: in vivo, Sagittaria pygmaea; details: rated 3-4 weeks after treatment
How it was run: as §3

[13] = tested on: ECHORC (Watergrass (Calif.)); assay: Postemergence weed control under flooded paddy conditions; format: in vivo, Echinochloa oryzoides; details: postemergence weeds
How it was run: (§4)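 Herbicidal effect is judged by eye on a 0–9 scale versus control, 3–4 weeks after dosing. Dosing is into flood water kept 1.5–3 cm over the soil, at about 0.0313–0.500 kg/ha in aqueous/acetone 50/50 v/v, on 3–5 cm weeds and 1.5–2.5-leaf rice seedlings.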

[14] = tested on: SAGPY (Arrowhead (Pygmaea)); assay: as above; format: in vivo, Sagittaria pygmaea; details: postemergence weeds
How it was run: as §4

[15] = Rate 0.0625 kg/ha, rated 3 to 4 weeks after treatment
[16] = rate 0.1250 kg/ha, 3-4 weeks after treatment
[17] = rate 0.2500 kg/ha, 3-4 weeks after treatment

C#CCOC(=O)CC1SC(=Nc2cc(-n3c(=O)cc(C(F)(F)F)n(C)c3=O)c(F)cc2Cl)N(CC(=O)OCC)C1=O (centres unmarked) [Compound 59, 2-{{2-Chloro-5-[3,6-dihydro-3-methyl-2,6-dioxo-4-(trifluoromethyl)-1(2H)-pyrimidinyl]-4-fluorophenyl}imino}-4-oxo-3,5-thiazolidinediacetic acid, 3-ethyl (2-propynyl) ester]
Postemergence herbicidal rating AMBEL ([1]; Rate 0.0158 kg/ha): 9.0
Postemergence herbicidal rating AMBEL ([1]; Rate 0.0315 kg/ha): 9.0
Postemergence herbicidal rating AMBEL ([1]; Rate 0.0630 kg/ha): 9.0
Postemergence herbicidal rating CASOB ([2]; Rate 0.0158 kg/ha): 3.0
Postemergence herbicidal rating CASOB ([2]; Rate 0.0315 kg/ha): 9.0
Postemergence herbicidal rating CASOB ([2]; Rate 0.0630 kg/ha): 9.0
Postemergence herbicidal rating GALAP ([3]; Rate 0.0158 kg/ha): 6.0
Postemergence herbicidal rating GALAP ([3]; Rate 0.0315 kg/ha): 6.0
Postemergence herbicidal rating GALAP ([3]; Rate 0.0630 kg/ha): 9.0
Postemergence herbicidal rating GLXMAW ([4]; Rate 0.0158 kg/ha): 8.0
Postemergence herbicidal rating GLXMAW ([4]; Rate 0.0315 kg/ha): 9.0
Postemergence herbicidal rating GLXMAW ([4]; Rate 0.0630 kg/ha): 9.0
Postemergence herbicidal rating TRZAWR ([5]; Rate 0.0158 kg/ha): 8.0
Postemergence herbicidal rating TRZAWR ([5]; Rate 0.0315 kg/ha): 8.0
Postemergence herbicidal rating TRZAWR ([5]; Rate 0.0630 kg/ha): 9.0
Preemergence herbicidal rating GALAP ([6]; rate 0.0156 kg/ha): 0.0
Preemergence herbicidal rating GALAP ([6]; rate 0.0313 kg/ha): 0.0
Preemergence herbicidal rating GALAP ([6]; rate 0.0625 kg/ha): 6.0
Preemergence herbicidal rating GALAP ([6]; rate 0.1250 kg/ha): 7.0
Preemergence herbicidal rating GALAP ([6]; rate 0.2500 kg/ha): 9.0
Preemergence herbicidal rating SETVI ([7]; rate 0.0156 kg/ha): 0.0
Preemergence herbicidal rating SETVI ([7]; rate 0.0313 kg/ha): 0.0
Preemergence herbicidal rating SETVI ([7]; rate 0.0625 kg/ha): 1.5
Preemergence herbicidal rating SETVI ([7]; rate 0.1250 kg/ha): 8.0
Preemergence herbicidal rating SETVI ([7]; rate 0.2500 kg/ha): 9.0
Preemergence herbicidal rating SETVI ([7]; rate 0.5000 kg/ha): 9.0
Preemergence herbicidal rating ORYSAT ([8]; rate 0.0156 kg/ha): 0.0
Preemergence herbicidal rating ORYSAT ([8]; rate 0.0313 kg/ha): 0.0
Preemergence herbicidal rating ORYSAT ([8]; rate 0.0625 kg/ha): 0.5
Preemergence herbicidal rating ORYSAT ([8]; rate 0.1250 kg/ha): 2.5
Preemergence herbicidal rating ORYSAT ([8]; rate 0.2500 kg/ha): 3.5
Preemergence herbicidal rating ORYSAT ([8]; rate 0.5000 kg/ha): 7.0
ECHORC herbicidal effect rating ([9]; 0.0625 kg/ha): 4.0
ECHORC herbicidal effect rating ([9]; 0.1250 kg/ha): 5.0
ECHORC herbicidal effect rating ([9]; 0.2500 kg/ha): 7.0
CYPSE herbicidal effect rating ([10]; 0.0625 kg/ha): 0.0
CYPSE herbicidal effect rating ([10]; 0.1250 kg/ha): 0.0
CYPSE herbicidal effect rating ([10]; 0.2500 kg/ha): 7.0
MOOVA herbicidal effect rating ([11]; 0.0625 kg/ha): 0.0
MOOVA herbicidal effect rating ([11]; 0.1250 kg/ha): 0.0
MOOVA herbicidal effect rating ([11]; 0.2500 kg/ha): 9.0
SAGPY herbicidal effect rating ([12]; 0.0625 kg/ha): 0.0
SAGPY herbicidal effect rating ([12]; 0.1250 kg/ha): 0.0
SAGPY herbicidal effect rating ([12]; 0.2500 kg/ha): 3.0
Herbicidal rating ECHORC [13, 15]: 4.0
Herbicidal rating ECHORC [13, 16]: 5.0
Herbicidal rating ECHORC [13, 17]: 7.0
Herbicidal rating SAGPY [14, 15]: 0.0
Herbicidal rating SAGPY [14, 16]: 0.0
Herbicidal rating SAGPY [14, 17]: 3.0
